Measured values from ChEMBL document CHEMBL1137864, “End-capping of the modified melanocortin tetrapeptide (p-Cl)Phe-D-Phe-Arg-Trp-NH2 as a route to hMC4R agonists” (Bioorg Med Chem Lett, 2004).

Legend:
[1] = target: Melanocyte-stimulating hormone receptor (Homo sapiens, UniProt Q01726); assay: Agonistic activity against human Melanocortin 1 receptor; type: functional
Melanocortin receptor 3 = Melanocortin receptor 3 (Homo sapiens, UniProt P41968); assay: Agonistic activity against human Melanocortin 3 receptor; type: functional
Melanocortin receptor 3, sequence (P41968 whole entry): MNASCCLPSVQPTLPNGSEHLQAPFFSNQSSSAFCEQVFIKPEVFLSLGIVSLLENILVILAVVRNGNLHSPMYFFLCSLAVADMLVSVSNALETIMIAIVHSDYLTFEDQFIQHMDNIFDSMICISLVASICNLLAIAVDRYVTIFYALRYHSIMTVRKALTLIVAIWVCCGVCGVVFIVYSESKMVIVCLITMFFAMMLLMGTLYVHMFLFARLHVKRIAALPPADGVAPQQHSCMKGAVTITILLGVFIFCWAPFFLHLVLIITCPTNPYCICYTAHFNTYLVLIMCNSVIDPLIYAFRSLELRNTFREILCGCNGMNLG

Melanocortin receptor 4 = Melanocortin receptor 4 (Homo sapiens, UniProt P32245); assay: Agonistic activity against human Melanocortin 4 receptor; type: functional
Melanocortin receptor 4, sequence (P32245 whole entry): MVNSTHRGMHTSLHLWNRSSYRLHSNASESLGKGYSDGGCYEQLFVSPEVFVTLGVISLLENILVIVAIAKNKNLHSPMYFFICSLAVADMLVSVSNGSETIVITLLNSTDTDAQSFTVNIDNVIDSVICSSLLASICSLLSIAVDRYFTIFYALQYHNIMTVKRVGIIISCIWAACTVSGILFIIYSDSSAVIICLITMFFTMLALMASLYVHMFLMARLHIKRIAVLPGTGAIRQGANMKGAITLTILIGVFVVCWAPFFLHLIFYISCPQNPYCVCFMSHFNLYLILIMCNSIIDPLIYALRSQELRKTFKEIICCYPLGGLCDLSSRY

[2] = target: Melanocortin receptor (M1 and M4) (Homo sapiens) (UniProt P32245+Q01726); assay: Ratio of EC50 of Melanocortin 4 receptor to that of Melanocortin 1 receptor; type: protein assay
[3] = target: Melanocortin receptor (M3 and M4) (Homo sapiens) (UniProt P32245+P41968); assay: Ratio of EC50 of Melanocortin 4 receptor to that of Melanocortin 3 receptor; type: protein assay

Melanocyte-stimulating hormone receptor, sequence (Q01726 whole entry): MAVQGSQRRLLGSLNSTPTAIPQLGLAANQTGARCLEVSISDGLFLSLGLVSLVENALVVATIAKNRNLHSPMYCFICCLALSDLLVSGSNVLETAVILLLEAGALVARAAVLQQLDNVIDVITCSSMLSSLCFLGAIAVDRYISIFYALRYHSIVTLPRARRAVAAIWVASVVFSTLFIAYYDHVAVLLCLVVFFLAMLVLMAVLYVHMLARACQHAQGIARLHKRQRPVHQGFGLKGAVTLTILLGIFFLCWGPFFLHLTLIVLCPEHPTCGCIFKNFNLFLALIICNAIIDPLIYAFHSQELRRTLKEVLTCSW

Work on `CC(C)(C)C(=O)N[C@@H](Cc1ccc(Cl)cc1)C(=O)NC(Cc1ccccc1)C(=O)N[C@@H](CCCN=C(N)N)C(=O)N[C@@H](Cc1c[nH]c2ccccc12)C(N)=O` (stereo in doubt) yielded an EC50 [1] of 381 nM, an EC50 (Melanocortin receptor 3) of 145 nM and an EC50 (Melanocortin receptor 4) of 23.7 nM. For the same compound, the Ratio [2] was 16 and the Ratio [3] was 6.

`N=C(N)NCCC[C@H](NC(=O)C(Cc1ccccc1)NC(=O)[C@H](Cc1ccc(Cl)cc1)NC(=O)c1cccs1)C(=O)N[C@@H](Cc1c[nH]c2ccccc12)C(N)=O` (stereo in doubt) showed an EC50 [1] of 892 nM, an EC50 (Melanocortin receptor 3) of 644 nM and an EC50 (Melanocortin receptor 4) of 18.7 nM. It also gave a Ratio [2] of 48 and a Ratio [3] of 34.

Work on `N=C(N)NCCC[C@H](NC(=O)C(Cc1ccccc1)NC(=O)[C@H](Cc1ccc(Cl)cc1)NC(=O)CCCCc1ccccc1)C(=O)N[C@@H](Cc1c[nH]c2ccccc12)C(N)=O` (stereo in doubt) yielded an EC50 [1] of 144 nM, an EC50 (Melanocortin receptor 3) of 34.5 nM and an EC50 (Melanocortin receptor 4) of 45 nM. The Ratio [2] was 3 and the Ratio [3] was 1.

With `N=C(N)NCCC[C@H](NC(=O)C(Cc1ccccc1)NC(=O)[C@H](Cc1ccc(Cl)cc1)NC(=O)Nc1ccccc1)C(=O)N[C@@H](Cc1c[nH]c2ccccc12)C(N)=O` (stereo in doubt) the EC50 [1] was 985 nM, the EC50 (Melanocortin receptor 3) was 92.5 nM and the EC50 (Melanocortin receptor 4) was 146 nM. It also gave a Ratio [2] of 7 and a Ratio [3] of 0.6.

With `N=C(N)NCCC[C@H](NC(=O)C(Cc1ccccc1)NC(=O)[C@H](Cc1ccc(Cl)cc1)NC(=O)CCCc1ccccc1)C(=O)N[C@@H](Cc1c[nH]c2ccccc12)C(N)=O` (stereo in doubt) the EC50 [1] was 113 nM, the EC50 (Melanocortin receptor 3) was 207 nM and the EC50 (Melanocortin receptor 4) was 82 nM. The Ratio [2] was 1 and the Ratio [3] was 3.

In the case of `N=C(N)NCCC[C@H](NC(=O)C(Cc1ccccc1)NC(=O)[C@H](Cc1ccc(Cl)cc1)NC(=O)c1c(F)c(F)c(F)c(F)c1F)C(=O)N[C@@H](Cc1c[nH]c2ccccc12)C(N)=O` (stereo in doubt), the EC50 [1] is reported as 555 nM, the EC50 (Melanocortin receptor 3) is reported as 1340 nM and the EC50 (Melanocortin receptor 4) is reported as 168 nM. For the same compound, the Ratio [2] was 3 and the Ratio [3] was 8.

`N=C(N)NCCC[C@H](NC(=O)C(Cc1ccccc1)NC(=O)[C@H](Cc1ccc(Cl)cc1)NC(=O)CC(N)=O)C(=O)N[C@@H](Cc1c[nH]c2ccccc12)C(N)=O` (stereo in doubt) gave an EC50 [1] of 597 nM, an EC50 (Melanocortin receptor 3) of 1010 nM and an EC50 (Melanocortin receptor 4) of 14.5 nM. It also gave a Ratio [2] of 41 and a Ratio [3] of 70.

For `C=CCC(=O)N[C@@H](Cc1ccc(Cl)cc1)C(=O)NC(Cc1ccccc1)C(=O)N[C@@H](CCCNC(=N)N)C(=O)N[C@@H](Cc1c[nH]c2ccccc12)C(N)=O` (stereo in doubt), the EC50 [1] was 856 nM, the EC50 (Melanocortin receptor 3) was 863 nM and the EC50 (Melanocortin receptor 4) was 13.7 nM. It also gave a Ratio [2] of 62 and a Ratio [3] of 63.

With `N=C(N)NCCC[C@H](NC(=O)C(Cc1ccccc1)NC(=O)[C@H](Cc1ccc(Cl)cc1)NC(=O)C(N)=O)C(=O)N[C@@H](Cc1c[nH]c2ccccc12)C(N)=O` (stereo in doubt) the EC50 [1] was 349 nM, the EC50 (Melanocortin receptor 3) was 164 nM and the EC50 (Melanocortin receptor 4) was 31.3 nM. For the same compound, the Ratio [2] was 11 and the Ratio [3] was 5.

In the case of `N=C(N)NCCC[C@H](NC(=O)C(Cc1ccccc1)NC(=O)[C@H](Cc1ccc(Cl)cc1)NC(=O)c1ccccc1)C(=O)N[C@@H](Cc1c[nH]c2ccccc12)C(N)=O` (stereo in doubt), the EC50 [1] is reported as 700 nM, the EC50 (Melanocortin receptor 3) is reported as 556 nM and the EC50 (Melanocortin receptor 4) is reported as 135 nM. The Ratio [2] was 5 and the Ratio [3] was 4.

Compound `COCC(=O)N[C@@H](Cc1ccc(Cl)cc1)C(=O)NC(Cc1ccccc1)C(=O)N[C@@H](CCCN=C(N)N)C(=O)N[C@@H](Cc1c[nH]c2ccccc12)C(N)=O` (stereo in doubt) has an EC50 [1] of 502 nM, an EC50 (Melanocortin receptor 3) of 961 nM and an EC50 (Melanocortin receptor 4) of 68.7 nM. For the same compound, the Ratio [2] was 7 and the Ratio [3] was 14.

With `N=C(N)NCCC[C@H](NC(=O)C(Cc1ccccc1)NC(=O)[C@H](Cc1ccc(Cl)cc1)NC(=O)COc1ccccc1)C(=O)N[C@@H](Cc1c[nH]c2ccccc12)C(N)=O` (stereo in doubt) the EC50 [1] was 841 nM, the EC50 (Melanocortin receptor 3) was 859 nM and the EC50 (Melanocortin receptor 4) was 185 nM. It also gave a Ratio [2] of 4 and a Ratio [3] of 5.

For `CCCCC(=O)N[C@@H](Cc1ccc(Cl)cc1)C(=O)NC(Cc1ccccc1)C(=O)N[C@@H](CCCN=C(N)N)C(=O)N[C@@H](Cc1c[nH]c2ccccc12)C(N)=O` (stereo in doubt), the EC50 [1] was 441 nM, the EC50 (Melanocortin receptor 3) was 460 nM and the EC50 (Melanocortin receptor 4) was 155 nM. It also gave a Ratio [2] of 3 and a Ratio [3] of 3.

`CCOC(=O)N[C@@H](Cc1ccc(Cl)cc1)C(=O)NC(Cc1ccccc1)C(=O)N[C@@H](CCCN=C(N)N)C(=O)N[C@@H](Cc1c[nH]c2ccccc12)C(N)=O` (stereo in doubt) was tested, and the EC50 [1] was 211 nM, the EC50 (Melanocortin receptor 3) was 3080 nM and the EC50 (Melanocortin receptor 4) was 35 nM. The Ratio [2] was 6 and the Ratio [3] was 88.

Work on `N=C(N)NCCC[C@H](NC(=O)C(Cc1ccccc1)NC(=O)[C@H](Cc1ccc(Cl)cc1)NC(=O)c1ccccn1)C(=O)N[C@@H](Cc1c[nH]c2ccccc12)C(N)=O` (stereo in doubt) yielded an EC50 [1] of 947 nM, an EC50 (Melanocortin receptor 3) of 452 nM and an EC50 (Melanocortin receptor 4) of 31.3 nM. The Ratio [2] was 30 and the Ratio [3] was 14.

`N=C(N)NCCC[C@H](NC(=O)C(Cc1ccccc1)NC(=O)[C@H](Cc1ccc(Cl)cc1)NC(=O)CCC(=O)c1cc(F)cc(F)c1)C(=O)N[C@@H](Cc1c[nH]c2ccccc12)C(N)=O` (stereo in doubt) was tested, and the EC50 [1] was 41 nM, the EC50 (Melanocortin receptor 3) was 140 nM and the EC50 (Melanocortin receptor 4) was 96 nM. For the same compound, the Ratio [2] was 0.4 and the Ratio [3] was 1.5.

Compound `N=C(N)NCCC[C@H](NC(=O)C(Cc1ccccc1)NC(=O)[C@H](Cc1ccc(Cl)cc1)NC(=O)CCC(=O)c1ccc(F)cc1)C(=O)N[C@@H](Cc1c[nH]c2ccccc12)C(N)=O` (stereo in doubt) has an EC50 [1] of 114 nM, an EC50 (Melanocortin receptor 3) of 203 nM and an EC50 (Melanocortin receptor 4) of 50 nM. For the same compound, the Ratio [2] was 2 and the Ratio [3] was 4.

`CN(C)C(=O)N[C@@H](Cc1ccc(Cl)cc1)C(=O)NC(Cc1ccccc1)C(=O)N[C@@H](CCCN=C(N)N)C(=O)N[C@@H](Cc1c[nH]c2ccccc12)C(N)=O` (stereo in doubt) showed an EC50 [1] of 2160 nM, an EC50 (Melanocortin receptor 3) of 175 nM and an EC50 (Melanocortin receptor 4) of 42 nM. For the same compound, the Ratio [2] was 51 and the Ratio [3] was 4.

With `N=C(N)NCCC[C@H](NC(=O)C(Cc1ccccc1)NC(=O)[C@H](Cc1ccc(Cl)cc1)NC(=O)c1ccncc1)C(=O)N[C@@H](Cc1c[nH]c2ccccc12)C(N)=O` (stereo in doubt) the EC50 [1] was 541 nM, the EC50 (Melanocortin receptor 3) was 992 nM and the EC50 (Melanocortin receptor 4) was 30 nM. The Ratio [2] was 18 and the Ratio [3] was 33.
